According to ChEMBL document CHEMBL5096195, “Recent research and development of NDM-1 inhibitors” (Eur J Med Chem, 2021):
Values after ≈ are worked out from the molar mass of the structure shown. Where a SMILES comes first, the peptide text is derived from it. [ ]: non-standard residue; d: D form. The star is where a group is joined. NODAGA = O=C(O)CN1CCN(CC(=O)O)CCN(C(CCC(=O)*)C(=O)O)CC1; NMeA = CN[CH](C)C(=O)O

Experiments:
[1] = Inhibition of NDM-1 (unknown origin) expressed in Escherichia coli Zc-YN3
[2] = Inhibition of NDM-1 (unknown origin); parameters: species or system Homo sapiens
Citrobacter freundii [3] = assay: Antibacterial activity against Citrobacter freundii expressing NDM-1 assessed as decrease in meropenem MIC at 4 mg/L incubated for 18 to 20 hrs by broth microdilution method; assay type: functional; settings: time 18-20 hrs
Citrobacter freundii [4] = assay: Antibacterial activity against Citrobacter freundii expressing NDM-1 assessed as decrease in meropenem MIC at 8 mg/L incubated for 18 to 20 hrs by broth microdilution method; assay type: functional; settings: time 18-20 hrs
[5] = Inhibition of NDM-1 (unknown origin) measured after 10 mins; parameters: species or system Homo sapiens
Escherichia coli [6] = assay: Antibacterial activity against Escherichia coli measured after 18 hrs; assay type: functional
Klebsiella pneumoniae = assay: Synergistic antibacterial activity against carbapenem-resistant Klebsiella pneumoniae expressing NDM-1 measured after 18 hrs in the presence of meropenem; assay type: functional
[7] = Inhibition of NDM-1 (unknown origin) using nitrocefin as substrate; parameters: species or system Homo sapiens
[8] = Inhibition of NDM-1 (unknown origin) using cefuroxime sodium as substrate incubated for 5 mins by UV-1800 spectrophotometric analysis; parameters: species or system Homo sapiens
[9] = Inhibition of NDM-1 (unknown origin) expressed in Escherichia coli; parameters: species or system Homo sapiens
[10] = Inhibition of NDM-1 (unknown origin) using meropenem as substrate incubated for 10 mins; parameters: species or system Homo sapiens
[11] = Binding affinity to NDM-1 (unknown origin) assessed as inhibition constant using meropenem as substrate incubated for 10 mins; parameters: species or system Homo sapiens
[12] = Inhibition of NDM-1 (unknown origin) using cefazolin as substrate incubated for 12 hrs by Agilent UV8453 UV-Vis spectrometric analysis; parameters: species or system Homo sapiens
Homo sapiens = species: Homo sapiens; assay: Inhibition of NDM-1 (unknown origin) at 16 uM using cefazolin as substrate incubated for 12 hrs by Agilent UV8453 UV-Vis spectrometric analysis relative to control
[13] = Binding affinity to NDM-1 (unknown origin) assessed as kinetic constant using cefazolin as substrate preincubated for 60 sec followed by cefazolin addition after 60 sec by isothermal titration calorimetric assay; parameters: species or system Homo sapiens
Escherichia coli [14] = assay: Antibacterial activity against Escherichia coli expressing NDM-1 assessed as decrease in meropenem MIC at 4 mg/L incubated for 18 to 20 hrs by broth microdilution method; assay type: functional; settings: time 18-20 hrs
Escherichia coli [15] = assay: Synergistic antibacterial activity against Escherichia coli BL21 (DE3) expressing NDM-1 incubated for 12 hrs in the presence of cefuroxime sodium by two-fold checkerboard microdilution method; assay type: functional
[16] = Inhibition of NDM-1 (unknown origin) by HPLC analysis; parameters: species or system Homo sapiens
[17] = Inhibition of NDM-1 (unknown origin) by using nitrocefin as substrate preincubated for 10 min followed by nitrocefin addition incubated after 30 min; parameters: species or system Homo sapiens
[18] = Oral bioavailability in BALB/c mouse relative to control; assay type: ADME, organism-based; settings: in vivo
[19] = Binding affinity to NDM-1 (unknown origin) assessed as inhibition constant using cefazolin as substrate incubated for 5 mins measured for every 1 sec by isothermal titration calorimetric analysis; parameters: species or system Homo sapiens
L929 = assay: Cytotoxicity against mouse L929 cells at 250 uM incubated for 48 hrs by MTT assay relative to control; assay type: toxicity, cell-based; settings: l929, 48 h

C=CCc1ccc(O)c(-c2cc(CC=C)ccc2O)c1 [MAGNOLOL]
IC50 [1]: 6.47 µM

O=C(O)CN(CCN(CC(=O)O)CC(=O)O)CC(=O)O [EDETIC ACID]
IC50 [2]: 1.6 µM

c1ccc(CN(CCN(Cc2ccccn2)Cc2ccccn2)Cc2ccccn2)nc1
MIC (Citrobacter freundii [3]): 0.5 µg/mL | MIC (Citrobacter freundii [4]): 0.06 µg/mL

O=C1N(Cc2cccc3ccccc23)c2ccccc2C12NN=C(c1ccccc1)S2 (configuration not stated)
IC50 [5]: 6.6 µM | MIC (Escherichia coli [6]): 4 µM (≈ 1.69 µg/mL) | MIC (Klebsiella pneumoniae): 2 µM

N[C@@H](CN[C@@H](CN[C@@H](CC(=O)O)C(=O)O)C(=O)O)C(=O)O
IC50 [7]: 4 µM

COc1ccc([C@@H]2CC(=O)c3c(O)cc(O[C@@H]4O[C@H](CO[C@@H]5O[C@@H](C)[C@H](O)[C@@H](O)[C@H]5O)[C@@H](O)[C@H](O)[C@H]4O)cc3O2)cc1O [HESPERIDIN]
IC50 [8]: 3.35 µM

O=C(O)[C@@H]1SC[C@H]2CS[C@H](CS)N21
IC50 [9]: 23 µM

CCCCCCCCCCCC1=C(O)C(=O)C=C(O)C1=O [EMBELIN]
IC50 [10]: 2.1 µM | Ki [11]: 0.19 µM

O=C(O)C(=O)CBr [BROMOPYRUVATE]
IC50 [12]: 2.57 µM | inhibition (Homo sapiens): > 90% | Ki [13]: 3.8 µM

CC(C(=O)NC(Cc1ccccc1)C(=O)N(C)C(C)C(=O)NC(Cc1ccccc1)C(N)=O)N(C)C(=O)CCC(C(=O)O)N1CCN(CC(=O)O)CCN(CC(=O)O)CC1 (configuration not stated) ({NODAGA}-[NMeA]F[NMeA]F-NH2; configuration not given here)
MIC (Escherichia coli [14]): 0.125 µg/mL

CC1(C)S[C@H]2CS[C@H](CS)N2[C@@H]1C(=O)O
IC50 [9]: 200 µM

CC1(C)S[C@@H]2[C@H](NC(=O)[C@H](N)c3ccccc3)C(=O)N2[C@H]1C(=O)O [AMPICILLIN]
MIC (Escherichia coli [15]): 32 µM

COC(=O)C[C@H]1[C@]2(C)C3=C(C)[C@H](c4ccoc4)C[C@H]3O[C@@H]2[C@@H]2OC(=O)[C@]3(C)C=CC(=O)[C@@]1(C)[C@@H]23 [NIMBOLIDE]
IC50 [2]: 1.34 µM

O=C(O)[C@H]1O[C@@H](Oc2cc3oc(-c4ccccc4)cc(=O)c3c(O)c2O)[C@H](O)[C@@H](O)[C@@H]1O [BAICALIN]
IC50 [16]: 3.89 µM

O=C(O)[C@H]1SC[C@@H]2CS[C@@H](CS)N21
IC50 [9]: 109 µM

CC1(C)S[C@@H]2CS[C@@H](CS)N2[C@H]1C(=O)O
IC50 [9]: 180 µM

COc1cc(/C=C/c2ccc(O)cc2)cc(OC)c1 [PTEROSTILBENE]
IC50 [17]: 15.37 µg/mL (≈ 60 µM) | bioavailability [18]: 80%

O=C(NNC(=S)S)c1ccccc1O
Ki [19]: 0.29 µM

O=C(O)CN1CCN(CC(=O)O)CCN(CC(=O)O)CC1
MIC (Escherichia coli [14]): 0.125 µg/mL

O=C(NNC(=S)[S][K])c1ccccc1O
Activity (L929): > 80%
